Among the data in the RepoRT retention time repository (doi:10.1007/s11306-014-0727-x) are LC retention time values, retold here.

The structures appear in SMILES notation. Where a name gives a salt, the structure may show the parent alone.

The data set is described as follows: HILIC, Merck SeQuant ZIC-pHILIC, 100 × 2.1 mm, 5 µm, 25 °C; gradient (min/%B) 0/3 1/3 12/30 14.5/90 17/90 18.5/3 24/3. To be noted: stereoisomer not certain.

The compound `COc1ccc2[nH]cc(CC(N)C(=O)O)c2c1` (racemic) [5-Methoxy-DL-tryptophan] displayed an LC retention time of 9.74 min.
With `NCCC(N)C(=O)O` (racemic) [DL-2-4-Diaminobutyric acid dihydrochloride], the LC retention time stood at 15.9 min.
The value for `NC(CCCC(N)C(=O)O)C(=O)O` (racemic) [DL-2-6-Diaminopimelic acid] was 14.8 min; that for `NC(CC(=O)O)C(=O)O` (racemic) [DL-Aspartic acid] was 13.6 min.
On to `NC(CCS)C(=O)O` (racemic) [DL-Homocysteine], for which the LC retention time was 11.1 min.
The compound `OCC1OC(OC2C(CO)OC(O)C(O)C2O)C(O)C(O)C1O` (single isomer, unassigned; peak a) [Lactose Peak A] had an LC retention time of 13.5 min.
Turning to `Nc1ncnc2c1ncn2C1CC(O)C(CO)O1` (stereo unspecified) [2'-Deoxyadenosine], the LC retention time stood at 7.15 min.
The compound `O=C(O)c1cc(=O)c2cccc(O)c2[nH]1` [4 8-Dihydroxyquinoline-2-carboxylic acid] showed an LC retention time of 9.54 min.
As to `CN(C)c1ccc(C=CC=O)cc1` [4-(dimethyl amino) cinnamaldehyde], the LC retention time was 1.17 min.
The compound `COc1ccc2[nH]cc(CCN)c2c1` [5-methoxytryptamine] showed an LC retention time of 9.56 min.
Turning to `CC(C)=CCNc1ncnc2nc[nH]c12` [6-(Y-Y-Dimethylallylamino)purine], the LC retention time was found to be 2.88 min.
The same measure for `c1cnc2[nH]ccc2c1` [7-Azaindole]: 1.74 min; for `CC(N)=O` [Acetamide]: 2.38 min; for `Nc1ncnc2nc[nH]c12` [Adenine]: 8.22 min.
The value for `Nc1ncnc2c1ncn2C1OC(CO)C(O)C1O` (stereo unspecified) [Adenosine] was 7.78 min; that for `CC(N)C(=O)O` (stereo unspecified) [Alanine] was 12.1 min.
The value for `CC(N)(CO)CO` [Amino-2-methylpropane-1 3-diol 2-] was 12.7 min; that for `NCc1ccccc1` [Benzylamine] was 10.2 min; that for `CC(=O)OCC1OC(OC(C)=O)C(OC(C)=O)C(OC(C)=O)C1OC(C)=O` (stereo not drawn) [Beta-Penta acetyl glucose] was 1.06 min.
As for `O=C(O)CC1OCC=C2CN3CCC45C6=CC(=O)C(=O)C([N+](=O)[O-])=C6NC4C1C2CC35` (stereo unspecified) [Cacotheline], the LC retention time came to 11.6 min.
The value for `Oc1cc(O)c2c(c1)OC(c1ccc(O)c(O)c1)C(O)C2` (stereo unspecified) [Catechin] was 8.63 min; that for `COc1cc2c(c(OC)c1OC)-c1ccc(OC)c(=O)cc1C(NC(C)=O)CC2` (stereo unspecified) [Colchicine] was 1.36 min; that for `CN1CC(=O)NC1=N` [Creatinine] was 9.87 min.
Consider `NC(CS)C(=O)O` (stereo unspecified) [Cysteine], for which the LC retention time came to 11.8 min.
As for `Nc1ccn(C2OC(CO)C(O)C2O)c(=O)n1` (stereo unspecified) [Cytidine], the LC retention time is 10.5 min.
As for `Nc1ccnc(=O)[nH]1` [Cytosine], the LC retention time amounted to 10.4 min.
`O=C(CO)C(OC1OC(CO)C(O)C(O)C1O)C(O)C(O)CO` (stereo not drawn) [D(+)turanose] had an LC retention time of 12.6 min.
`CC(C)C[C@@H](N)C(=O)O` [D-Leucine] returned an LC retention time of 9.5 min.
The value for `N[C@H](Cc1c[nH]c2ccccc12)C(=O)O` [D-Tryptophan] was 10.1 min; that for `Nc1ccccc1C(=O)CC(N)C(=O)O` [D-kynurenine] was 9.76 min; that for `CC(C)[C@@H](N)C(=O)O` [D-valine] was 10.5 min.
For the compound `Nc1ccn(C2CC(O)C(CO)O2)c(=O)n1` (stereo unspecified) [Deoxycytidine], the LC retention time is 10 min.
In turn, `Nc1nc2c(ncn2C2CC(O)C(CO)O2)c(=O)[nH]1` (stereo unspecified) [Deoxyguanosine] had an LC retention time of 9.48 min.
Consider `COc1cc(-c2ccc(N)c(OC)c2)ccc1N` [Dianisidine o-], for which the LC retention time was 1.46 min.
Turning to `COc1ccc(Cc2cnc(N)nc2N)cc1OC` [Diaveridine], the LC retention time came out at 8.91 min.
The same measure for `c1ccc(CNCc2ccccc2)cc1` [Dibenzylamine]: 7.37 min; for `C(=NC1CCCCC1)=NC1CCCCC1` [Dicyclohexylcarbodiimide-n n']: 1.09 min; for `OCCNCCO` [Diethanolamine]: 11.3 min.
`NC(Cc1ccc(O)c(O)c1)C(=O)O` [Dihydroxyphenyl-analine L-3 4] displayed an LC retention time of 12.7 min.
`CN(C)Cc1ccccc1` [Dimethylbenzylamine N N-] yielded an LC retention time of 7.54 min.
`NCCO` [Ethanolamine]: the LC retention time was determined as 12.9 min.
Regarding `Nc1nc2ncc(CNc3ccc(C(=O)NC(CCC(=O)O)C(=O)O)cc3)nc2c(=O)[nH]1` (stereo unspecified) [Folic Acid], the LC retention time amounted to 11.4 min.
As for `NCCCC(=O)O` [Gamma-amino-n-butyric acid], the LC retention time came out at 11.6 min.
Consider `NC(=O)CCC(N)C(=O)O` [Glutamine L-], for which the LC retention time was determined as 12.9 min.
In the case of `NC(N)=NCC(=O)O` [Glycocyamine], the LC retention time came to 12.8 min.
As to `NCC(=O)NCC(=O)O` [Glycylglycine], the LC retention time amounted to 14.4 min.
Take `Nc1nc2nc[nH]c2c(=O)[nH]1` [Guanine]: the LC retention time came to 9.81 min.
Consider `Nc1nc2c(ncn2C2OC(CO)C(O)C2O)c(=O)[nH]1` (stereo unspecified) [Guanosine], for which the LC retention time was found to be 10.6 min.
The value for `O=c1[nH]cnc2nc[nH]c12` [Hypoxanthine] was 7.88 min; that for `c1c[nH]cn1` [Imidazole] was 10.4 min; that for `O=C(O)CNCC(=O)O` [Iminodiacetic acid] was 13.7 min.
`NC(=O)Cc1c[nH]c2ccccc12` [Indole-3-acetamide] came in with an LC retention time of 2.48 min.
As to `O=c1[nH]cnc2c1ncn2C1OC(CO)C(O)C1O` (stereo unspecified) [Inosine], the LC retention time was found to be 9.18 min.
The same measure for `O=C(O)C1CCNCC1` [Isonipecotic acid]: 11 min; for `N[C@@H](CCCC(=O)O)C(=O)O` [L-2-Aminoadipic acid]: 12.4 min.
`O=P([O-])([O-])OCC(O)CO` [L-Alpha-Glycerophosphate] returned an LC retention time of 13.5 min.
In turn, `NC(N)=NCCC[C@H](N)C(=O)O` [L-Arginine] registered an LC retention time of 16 min.
With `NC(=O)C[C@H](N)C(=O)O` [L-Asparagine], the LC retention time came to 13.2 min.
`N[C@@H](Cc1cnc[nH]1)C(=O)O` [L-Histidine monohydrochloride] returned an LC retention time of 15.7 min.
Regarding `N[C@@H](CCO)C(=O)O` [L-Homoserine], the LC retention time amounted to 12.6 min.
The value for `NCCCC[C@H](N)C(=O)O` [L-Lysine] was 15.9 min; that for `CCCC[C@H](N)C(=O)O` [L-Norleucine] was 9.62 min.
The same measure for `NCCC[C@H](N)C(=O)O` [L-Ornithine]: 15.9 min.
In turn, `O=C(O)[C@@H]1CCCN1` [L-Proline] had an LC retention time of 10.4 min.
The same measure for `CCNC(=O)CC[C@H](N)C(=O)O` [L-Theanine]: 10.6 min; for `CCC(N)C(=O)O` [L-a-Amino-n-butyric acid]: 11.6 min.
